This is an account of results in PubChem BioAssay AID330 (DTP/NCI, 2004).

This assay deals with P388 leukemia ip, CD2F1 mice, survival T/C. As to the kind of experiment: NCI In Vivo Anticancer Drug Screen. Data for tumor model P388 Leukemia (intraperitoneal) in CD2F1 (CDF1) mice. As to conditions: endpoint: median survival time, higher = longer survival. Summed up:
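Mice carrying the transplanted tumor received test compound or vehicle. Survival was recorded in each group, and the value is the treated-group measurement divided by that of the vehicle-treated control group.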

Where [1] appears, read: dose: 60.0 mg/kg/injection, schedule: Q01DX005 (ip), vehicle: saline with Tween-80.
The mark [2] stands for this setting: dose: 120.0 mg/kg/injection, schedule: Q01DX005 (ip), vehicle: saline with Tween-80.
The mark [3] stands for this setting: dose: 50.0 mg/kg/injection, schedule: Q01DX005 (ip), vehicle: saline.
[4] abbreviates: dose: 100.0 mg/kg/injection, schedule: Q01DX005 (ip), vehicle: saline.
[5] abbreviates: dose: 200.0 mg/kg/injection, schedule: Q01DX005 (ip), vehicle: saline.
The mark [6] stands for this setting: dose: 50.0 mg/kg/injection, schedule: Q01DX009 (ip), vehicle: Klucel (hydroxypropylcellulose) (HPC).
The mark [7] stands for this setting: dose: 100.0 mg/kg/injection, schedule: Q01DX009 (ip), vehicle: Klucel (hydroxypropylcellulose) (HPC).
[8] abbreviates: dose: 200.0 mg/kg/injection, schedule: Q01DX009 (ip), vehicle: Klucel (hydroxypropylcellulose) (HPC).
Setting [9] is: dose: 30.0 mg/kg/injection, schedule: Q01DX005 (ip), vehicle: saline.
Where [10] appears, read: dose: 60.0 mg/kg/injection, schedule: Q01DX005 (ip), vehicle: saline.
The mark [11] stands for this setting: dose: 240.0 mg/kg/injection, schedule: Q01DX005 (ip), vehicle: saline with Tween-80.

SMILES strings stand for the structures. Where “and” joins values, the source holds several entries; their conditions need not be identical. Equal values may be shown once. Toxic doses and inconclusive results are not listed.

For `CCOC(=O)c1c(N)sc2c1CCCCC2`, the T/C is, setting by setting: (dose: 100.0 mg/kg/injection, schedule: Q04DX003 (ip), vehicle: saline with Tween-80) 100 % of control; (dose: 200.0 mg/kg/injection, schedule: Q04DX003 (ip), vehicle: saline with Tween-80) 104 % of control; (dose: 400.0 mg/kg/injection, schedule: Q04DX003 (ip), vehicle: saline with Tween-80) 100 % of control.

Take `CCCCN(CCCC)CCCNc1nccc2ccccc12`: the T/C runs as follows: (dose: 6.25 mg/kg/injection, schedule: Q01DX005 (ip), vehicle: saline with Tween-80) 106 % of control; (dose: 12.5 mg/kg/injection, schedule: Q01DX005 (ip), vehicle: saline with Tween-80) 103 % of control; (dose: 25.0 mg/kg/injection, schedule: Q01DX005 (ip), vehicle: saline with Tween-80) 106 % of control.

For `CCCCCCCCCCCCCCCCCCCC(O)CCCCCCCCC` (configuration not stated), the T/C by setting is: (dose: 15.0 mg/kg/injection, schedule: Q01DX005 (ip), vehicle: saline with Tween-80) 102 % of control; (dose: 30.0 mg/kg/injection, schedule: Q01DX005 (ip), vehicle: saline with Tween-80) 94 % of control; under setting [1], 87 % of control; under setting [2], 86 % of control.

Regarding `O=C(N/C(=C\c1ccccc1)C(=O)N1CCN(c2ccccc2)CC1)c1ccccc1`, the T/C was 98 % of control (dose: 50.0 mg/kg/injection, schedule: Q01DX005 (ip), vehicle: saline with Tween-80); 98 % of control (dose: 100.0 mg/kg/injection, schedule: Q01DX005 (ip), vehicle: saline with Tween-80); 86 % of control (dose: 200.0 mg/kg/injection, schedule: Q01DX005 (ip), vehicle: saline with Tween-80).

For the compound `O=NN(CCCl)C(=O)Nc1ccc(CCO)cc1`, the T/C is 118 % of control (dose: 0.22 mg/kg/injection, schedule: Q01DX009 (ip), vehicle: saline + alcohol); 154 % of control (dose: 0.5 mg/kg/injection, schedule: Q01DX009 (ip), vehicle: saline + alcohol); 172 % of control (dose: 0.75 mg/kg/injection, schedule: Q01DX009 (ip), vehicle: saline + alcohol); 272 % of control (dose: 4.0 mg/kg/injection, schedule: Q01DX009 (ip), vehicle: saline); 272 % of control (dose: 6.0 mg/kg/injection, schedule: Q01DX009 (ip), vehicle: saline); 272 % of control (dose: 9.0 mg/kg/injection, schedule: Q01DX009 (ip), vehicle: saline).

As to `O=C(NC(=S)Nc1c(Cl)cccc1Cl)c1cccc(Cl)c1`, the T/C was 106 % of control (dose: 12.5 mg/kg/injection, schedule: Q01DX005 (ip), vehicle: Klucel (hydroxypropylcellulose) (HPC)); 92 % of control (dose: 25.0 mg/kg/injection, schedule: Q01DX005 (ip), vehicle: Klucel (hydroxypropylcellulose) (HPC)); 94 % of control (dose: 50.0 mg/kg/injection, schedule: Q01DX005 (ip), vehicle: Klucel (hydroxypropylcellulose) (HPC)).

In the case of `COC(=O)C(C)CP(=O)(OC)OC` (configuration not stated), the T/C under setting [3] was 99 % of control, the T/C under setting [4] is 97 % of control and the T/C under setting [5] was 99 % of control.

Turning to `O=C1OC2C=CC=CN2C(=O)C1Cc1ccccc1` (configuration not stated), the T/C is, setting by setting: (dose: 60.0 mg/kg/injection, schedule: Q01DX005 (ip), vehicle: Klucel (hydroxypropylcellulose) (HPC)) 105 % of control; (dose: 120.0 mg/kg/injection, schedule: Q01DX005 (ip), vehicle: Klucel (hydroxypropylcellulose) (HPC)) 102 % of control; (dose: 240.0 mg/kg/injection, schedule: Q01DX005 (ip), vehicle: Klucel (hydroxypropylcellulose) (HPC)) 100 % of control.

Regarding `CC(=O)OC1C2CCC3C(C)(O)C4CC(O)C(C)(C)C4(O)C(O)CC13CC2(C)O` (configuration not stated), the T/C was 100 % of control (dose: 0.09 mg/kg/injection, schedule: Q01DX009 (ip), vehicle: saline); 98 % of control (dose: 0.19 mg/kg/injection, schedule: Q01DX009 (ip), vehicle: saline); 116 % of control (dose: 0.25 mg/kg/injection, schedule: Q01DX009 (ip), vehicle: saline); 100 % of control and 89 % of control (dose: 0.39 mg/kg/injection, schedule: Q01DX009 (ip), vehicle: saline); 108 % of control (dose: 0.5 mg/kg/injection, schedule: Q01DX009 (ip), vehicle: saline); 107 % of control (dose: 1.0 mg/kg/injection, schedule: Q01DX009 (ip), vehicle: saline).

For the compound `CCOC(=O)C(CC1=CS(=O)(=O)c2ccc(Cl)cc21)(NC(C)=O)C(=O)OCC`, the T/C reads like this: under setting [6], 96 % of control; under setting [7], 91 % of control; under setting [8], 87 % of control.

Consider `CCCCOCN(COCCCC)CC(C)(C)C`, for which the T/C by setting is: (dose: 50.0 mg/kg/injection, schedule: Q01DX009 (ip), vehicle: saline with Tween-80) 107 % of control; (dose: 100.0 mg/kg/injection, schedule: Q01DX009 (ip), vehicle: saline with Tween-80) 105 % of control; (dose: 200.0 mg/kg/injection, schedule: Q01DX009 (ip), vehicle: saline with Tween-80) 109 % of control.

Regarding `CC1CC(C)(C)C2=NCCN21` (configuration not stated), the T/C runs as follows: (dose: 6.25 mg/kg/injection, schedule: Q01DX009 (ip), vehicle: water) 105 % of control; (dose: 12.5 mg/kg/injection, schedule: Q01DX009 (ip), vehicle: water) 100 % of control; (dose: 15.0 mg/kg/injection, schedule: Q01DX005 (ip), vehicle: saline) 106 % of control; (dose: 25.0 mg/kg/injection, schedule: Q01DX009 (ip), vehicle: water) 107 % of control; under setting [9], 106 % of control; (dose: 50.0 mg/kg/injection, schedule: Q01DX009 (ip), vehicle: water) 107 % of control. In addition, the T/C under setting [10] was 99 % of control and 100 % of control.

Regarding `CN1CCN(C(=O)/C=C/C(=O)c2ccccc2)CC1`, the T/C is 121 % of control (dose: 30.0 mg/kg/injection, schedule: Q01DX005 (ip), vehicle: Klucel (hydroxypropylcellulose) (HPC)); 108 % of control under setting [9]; 106 % of control and 109 % of control under setting [10].

For the compound `N[C@@H](Cc1ccccc1)C(=O)NCCNC(=O)[C@@H](N)Cc1ccccc1`, the T/C is, setting by setting: under setting [1], 103 % of control; under setting [2], 100 % of control; under setting [11], 104 % of control.

`C1CCCc2c(-c3noc4c3CCCCCC4)noc2CC1`: the T/C under setting [10] is 98 % of control; the T/C (dose: 120.0 mg/kg/injection, schedule: Q01DX005 (ip), vehicle: saline) is 99 % of control; the T/C (dose: 240.0 mg/kg/injection, schedule: Q01DX005 (ip), vehicle: saline) is 108 % of control.

As for `O=C1CSC(=S)N1c1ccc(I)cc1`, the T/C was 101 % of control (dose: 50.0 mg/kg/injection, schedule: Q01DX009 (ip), vehicle: suspension in saline); 101 % of control (dose: 100.0 mg/kg/injection, schedule: Q01DX009 (ip), vehicle: suspension in saline); 114 % of control (dose: 200.0 mg/kg/injection, schedule: Q01DX009 (ip), vehicle: suspension in saline).

As for `COc1cccc(C(OC(=O)c2ccccc2)c2nncc3ccccc23)c1OC` (configuration not stated), the T/C is, setting by setting: under setting [6], 100 % of control; under setting [7], 103 % of control; under setting [8], 100 % of control.

Consider `COc1cccc2cc(-c3c[nH]c4ccccc34)c(=O)oc12`, for which the T/C was 105 % of control under setting [1], 98 % of control under setting [2] and 95 % of control under setting [11].

With `COc1ccn(C2CCCCO2)c(=O)n1` (configuration not stated), the T/C reads like this: under setting [3], 108 % of control; under setting [4], 108 % of control; under setting [5], 108 % of control.

As for `CC(=O)N=C1C=C(NC(C)=O)C(=O)c2ccccc21`, the T/C was 103 % of control (dose: 6.25 mg/kg/injection, schedule: Q01DX009 (ip), vehicle: Klucel (hydroxypropylcellulose) (HPC)); 99 % of control and 100 % of control and 116 % of control (dose: 12.5 mg/kg/injection, schedule: Q01DX009 (ip), vehicle: Klucel (hydroxypropylcellulose) (HPC)); 100 % of control and 105 % of control and 124 % of control (dose: 25.0 mg/kg/injection, schedule: Q01DX009 (ip), vehicle: Klucel (hydroxypropylcellulose) (HPC)); 112 % of control under setting [6].
